# Test results taken from paper PMC12575627 (Nature Communications, 2025).
# Legend:
# Assay in all cases: […]CABP radioligand binding
# Assay type in all cases: biochemical
# Conditions in all cases: labelled compound, E. coli soluble protein
# RrL^c2 = target: T1, RrL^c2 (Rhodospirillum rubrum, UniProt P04718)
# T1 sequence (P04718 1-466): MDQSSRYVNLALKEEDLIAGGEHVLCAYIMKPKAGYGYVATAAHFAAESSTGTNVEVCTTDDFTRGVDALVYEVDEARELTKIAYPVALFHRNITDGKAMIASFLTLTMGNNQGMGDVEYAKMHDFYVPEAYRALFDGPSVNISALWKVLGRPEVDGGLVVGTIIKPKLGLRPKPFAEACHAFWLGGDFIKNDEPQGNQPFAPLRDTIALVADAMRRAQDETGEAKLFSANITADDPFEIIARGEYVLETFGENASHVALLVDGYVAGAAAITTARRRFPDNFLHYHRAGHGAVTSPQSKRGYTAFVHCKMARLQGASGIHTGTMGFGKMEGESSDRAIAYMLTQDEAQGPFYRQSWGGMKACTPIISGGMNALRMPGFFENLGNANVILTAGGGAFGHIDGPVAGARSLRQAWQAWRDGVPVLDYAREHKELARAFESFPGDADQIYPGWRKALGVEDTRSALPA
# Rr^cL2 = target: T2, Rr^cL2 (Rhodospirillum rubrum, UniProt P04718)
# T2 sequence (P04718 1-466): T1 sequence (P04718 1-466)
# RrRubisco (RrL2) = target: T3, RrRubisco (RrL2) (Rhodospirillum rubrum, UniProt P04718)
# T3 sequence (P04718 1-466): T1 sequence (P04718 1-466)
smiles,measurement,setting,value
O=C(O)[C@@](O)(COP(=O)(O)O)[C@H](O)[C@H](O)COP(=O)(O)O [14CABP],14CABP radioligand binding (active-site quantification),RrL^c2,CLP tagging to RbcL was found to have no measurable impact on RrRubisco formation
same,14CABP radioligand binding (active-site quantification),Rr^cL2,CLP tagging to RbcL was found to have no measurable impact on RrRubisco formation
same,14CABP radioligand binding (active-site quantification),RrRubisco (RrL2),CLP tagging to RbcL was found to have no measurable impact on RrRubisco formation
